Experimental data: ChEMBL document CHEMBL5537181 (J Med Chem, 2024)
Calls of active or inactive are those of the source. The rule behind the calls is not given here.

What was measured:
Rattus norvegicus = assay: Analgesic activity in Chronic constriction injury rat model assessed as decrease in hyperalgesia at 300 microg/kg,IM administrated every 2 hrs and measured after 24 hrs; assay type: functional, organism-based; conditions: dose 300.0 µg/kg
[1] = target: Neuronal acetylcholine receptor; alpha9/alpha10 (Homo sapiens, UniProt Q9GZZ6+Q9UGM1); assay: Antagonist activity at human alpha9alpha10 nAChR expressed in acetylcholine-induced Xenopus laevis oocytes assessed as inhibition of acetylcholine-induced current by two electrode voltage-clamp assay; assay type: cell-based, Oocyte
Chain of Neuronal acetylcholine receptor; alpha9/alpha10 (Q9UGM1 whole entry): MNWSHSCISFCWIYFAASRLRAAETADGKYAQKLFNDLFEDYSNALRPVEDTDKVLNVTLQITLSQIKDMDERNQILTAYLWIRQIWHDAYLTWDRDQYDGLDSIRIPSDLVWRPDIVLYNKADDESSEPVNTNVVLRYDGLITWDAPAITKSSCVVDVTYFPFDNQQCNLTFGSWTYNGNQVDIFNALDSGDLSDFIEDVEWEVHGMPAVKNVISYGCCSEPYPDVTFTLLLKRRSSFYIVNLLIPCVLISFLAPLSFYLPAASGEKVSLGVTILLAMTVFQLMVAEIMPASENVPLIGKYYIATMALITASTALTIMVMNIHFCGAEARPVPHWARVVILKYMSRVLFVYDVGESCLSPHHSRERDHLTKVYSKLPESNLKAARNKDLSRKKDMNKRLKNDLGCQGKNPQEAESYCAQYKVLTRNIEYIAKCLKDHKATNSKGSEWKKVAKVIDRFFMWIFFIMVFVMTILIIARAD
Chain of Neuronal acetylcholine receptor; alpha9/alpha10 (Q9GZZ6 whole entry): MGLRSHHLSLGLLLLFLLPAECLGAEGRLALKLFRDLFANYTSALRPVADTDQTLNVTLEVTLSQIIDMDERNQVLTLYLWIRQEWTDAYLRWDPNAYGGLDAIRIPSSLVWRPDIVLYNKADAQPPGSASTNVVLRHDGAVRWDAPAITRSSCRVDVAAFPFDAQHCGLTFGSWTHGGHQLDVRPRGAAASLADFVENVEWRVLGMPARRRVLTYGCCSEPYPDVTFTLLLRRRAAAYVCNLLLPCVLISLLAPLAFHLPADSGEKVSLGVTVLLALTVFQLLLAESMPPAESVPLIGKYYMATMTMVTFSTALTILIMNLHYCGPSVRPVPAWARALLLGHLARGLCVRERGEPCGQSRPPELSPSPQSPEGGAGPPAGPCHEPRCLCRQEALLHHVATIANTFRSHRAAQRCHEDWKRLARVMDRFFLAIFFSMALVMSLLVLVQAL

[2] = target: Voltage-dependent N-type calcium channel subunit alpha-1B (Homo sapiens, UniProt Q00975); assay: Inhibition of human Cav2.2 channel transfected in HEK293T cells co-expressed with human GABAB receptor assessed as inhibition of Cav2.2-mediated Ba2+ current measured for 3 to 5 days by whole-cell patch clamp assay; assay type: cell-based
Chain of Voltage-dependent N-type calcium channel subunit alpha-1B (Q00975 whole entry): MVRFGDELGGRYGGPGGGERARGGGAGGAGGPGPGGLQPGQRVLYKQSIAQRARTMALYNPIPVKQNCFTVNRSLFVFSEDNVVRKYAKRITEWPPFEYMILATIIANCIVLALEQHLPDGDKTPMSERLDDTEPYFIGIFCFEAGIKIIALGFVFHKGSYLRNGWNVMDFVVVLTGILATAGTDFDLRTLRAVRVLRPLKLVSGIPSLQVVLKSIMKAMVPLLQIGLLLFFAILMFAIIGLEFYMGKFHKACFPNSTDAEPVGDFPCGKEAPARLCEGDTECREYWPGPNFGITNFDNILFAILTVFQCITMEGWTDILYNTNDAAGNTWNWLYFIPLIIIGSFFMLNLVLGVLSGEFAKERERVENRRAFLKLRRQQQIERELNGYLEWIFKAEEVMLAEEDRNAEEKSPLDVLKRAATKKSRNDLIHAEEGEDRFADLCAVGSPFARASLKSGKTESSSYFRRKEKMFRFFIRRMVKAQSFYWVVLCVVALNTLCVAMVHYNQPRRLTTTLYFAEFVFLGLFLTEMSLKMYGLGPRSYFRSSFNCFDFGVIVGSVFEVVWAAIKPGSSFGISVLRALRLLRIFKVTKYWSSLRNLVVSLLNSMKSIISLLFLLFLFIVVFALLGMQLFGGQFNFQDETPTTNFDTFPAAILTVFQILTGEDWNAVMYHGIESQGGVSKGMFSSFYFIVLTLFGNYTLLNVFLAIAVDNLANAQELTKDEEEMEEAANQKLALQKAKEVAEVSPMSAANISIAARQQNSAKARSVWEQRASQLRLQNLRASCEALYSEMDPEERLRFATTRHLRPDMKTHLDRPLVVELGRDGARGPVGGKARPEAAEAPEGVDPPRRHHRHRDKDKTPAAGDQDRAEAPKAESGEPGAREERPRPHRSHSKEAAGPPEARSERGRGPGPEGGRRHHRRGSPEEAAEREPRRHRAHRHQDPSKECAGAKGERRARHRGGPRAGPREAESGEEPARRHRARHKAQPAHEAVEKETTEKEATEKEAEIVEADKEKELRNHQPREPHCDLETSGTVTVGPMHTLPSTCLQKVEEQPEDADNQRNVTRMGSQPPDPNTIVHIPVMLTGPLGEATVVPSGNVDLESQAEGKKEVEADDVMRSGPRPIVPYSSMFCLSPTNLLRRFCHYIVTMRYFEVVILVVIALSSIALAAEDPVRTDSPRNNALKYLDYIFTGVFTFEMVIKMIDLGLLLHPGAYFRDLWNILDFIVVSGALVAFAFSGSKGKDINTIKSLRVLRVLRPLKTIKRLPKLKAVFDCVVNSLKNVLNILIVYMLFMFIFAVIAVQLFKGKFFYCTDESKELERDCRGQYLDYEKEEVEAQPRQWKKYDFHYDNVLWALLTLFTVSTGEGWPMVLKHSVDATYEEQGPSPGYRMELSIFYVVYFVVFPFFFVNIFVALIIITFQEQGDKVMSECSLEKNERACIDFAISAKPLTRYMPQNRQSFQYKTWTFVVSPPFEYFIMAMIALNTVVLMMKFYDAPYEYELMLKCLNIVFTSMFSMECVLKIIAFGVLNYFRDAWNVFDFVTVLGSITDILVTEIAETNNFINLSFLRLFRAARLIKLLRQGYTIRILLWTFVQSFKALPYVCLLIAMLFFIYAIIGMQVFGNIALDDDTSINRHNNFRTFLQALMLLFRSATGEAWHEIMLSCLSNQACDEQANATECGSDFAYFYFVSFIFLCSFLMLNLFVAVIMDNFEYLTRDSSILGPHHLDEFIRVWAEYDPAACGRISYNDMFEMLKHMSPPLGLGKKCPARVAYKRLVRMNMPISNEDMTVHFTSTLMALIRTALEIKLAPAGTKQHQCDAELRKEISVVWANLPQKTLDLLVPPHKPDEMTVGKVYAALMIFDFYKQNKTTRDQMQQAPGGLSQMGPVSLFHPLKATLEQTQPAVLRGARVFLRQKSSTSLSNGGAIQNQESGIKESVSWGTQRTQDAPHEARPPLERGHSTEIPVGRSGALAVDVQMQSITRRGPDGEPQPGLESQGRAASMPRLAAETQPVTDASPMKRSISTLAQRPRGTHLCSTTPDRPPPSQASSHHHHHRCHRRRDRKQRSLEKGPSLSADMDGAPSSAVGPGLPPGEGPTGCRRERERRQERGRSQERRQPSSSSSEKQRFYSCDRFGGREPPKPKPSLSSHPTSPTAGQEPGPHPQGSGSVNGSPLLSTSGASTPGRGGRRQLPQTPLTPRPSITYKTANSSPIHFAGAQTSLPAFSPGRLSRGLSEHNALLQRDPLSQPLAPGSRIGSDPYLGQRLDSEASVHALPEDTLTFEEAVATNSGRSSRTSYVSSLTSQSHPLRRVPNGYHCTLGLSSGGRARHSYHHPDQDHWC

Row | Compound | Activity (Rattus norvegicus) | IC50 [1] [µM] | IC50 [2] [µM]
1 | C[C@@H](O)[C@@H]1NC(=O)[C@@H]2CSSC[C@@H](C(=O)N[C@@H](Cc3ccc(O)cc3)C(=O)O)NC(=O)[C@H](CCC(N)=O)NC(=O)[C@H](Cc3ccc(O)c(I)c3)NC(=O)[C@H](CCCNC(=N)N)NC(=O)[C@H](CSSC[C@H](NC(=O)CN)C(=O)N2)NC(=O)[C@H](CCCNC(N)=O)NC(=O)[C@@H]2CCCN2C(=O)[C@H](CC(=O)O)NC1=O | Active |  | 
2 | CC[C@H](C)[C@@H]1NC(=O)[C@H](CCCNC(=N)N)NC(=O)[C@H](CCCNC(=N)N)NC(=O)[C@@H]2CSSC[C@H](NC(=O)[C@H](N)[C@H](C)O)C(=O)N[C@@H](CCCNC(=N)N)C(=O)N[C@@H](CO)C(=O)N[C@@H](CO)C(=O)NCC(=O)N[C@@H](CCCNC(=N)N)C(=O)N[C@@H](Cc3ccc(O)cc3)C(=O)N[C@H](CSSC[C@H](C(=O)N[C@H](C(N)=O)C(C)C)NC(=O)[C@H](C)NC(=O)[C@H](CC(=O)O)NC(=O)[C@H]([C@@H](C)O)NC1=O)C(=O)N[C@@H](CCCNC(=N)N)C(=O)N[C@@H](CO)C(=O)N1CCC[C@H]1C(=O)N[C@@H](Cc1ccc(O)cc1)C(=O)N[C@@H](CC(=O)O)C(=O)N[C@@H](CCCNC(=N)N)C(=O)N[C@@H](CCCNC(=N)N)C(=O)N[C@@H](CCCNC(=N)N)C(=O)N[C@@H](CCCNC(=N)N)C(=O)N[C@@H](Cc1ccc(O)cc1)C(=O)N2 |  | 0.116 | 0.003
